Data from patent US20240000756A1, “METHODS AND COMPOUNDS FOR TREATMENT OF AUTISM SPECTRUM DISORDER” (Crestone, Inc., priority 2020, published 2024).
≈ marks a conversion by molar mass, not a printed value. Read-outs that look alike come from different tables or passages of the source.

Assays:
[1] = Multiple ascending dose Phase 1b study, safety and pharmacokinetics in healthy adults; format: in vivo, human; conditions: for half-life / Tmax: both sexes, human, plasma, oral
Description: The study was performed at Quintiles Phase I Services in Overland Park, KS. […] The secondary objective was to determine the plasma pharmacokinetic characteristics of CRS3123 after multiple oral doses. An exploratory endpoint was the evaluation of the effect of CRS3123 on fecal microbiome.

C. difficile [2] = conditions: C. difficile clinical isolates, agar dilution; cited from earlier work
C. perfringens = C. perfringens clinical isolates, agar dilution; cited from earlier work
C. difficile [3] = conditions: cited from earlier work
[4] = Single ascending dose Phase 1a study, safety and pharmacokinetics in healthy adults
[5] = single dose, all TEAEs, combined
[6] = single dose, related to CRS3123 treatment, combined

O=c1cc(NCCCN[C@@H]2CCOc3c(Br)cc(Br)cc32)[nH]c2ccsc12 [CRS3123]
dose proportionality of exposure (Cmax, AUC0-12 Day 1; Cmax,ss, AUC0-τ Day 10) ([1]; 200-600 mg BID): less than proportional to the increase in dose | half-life ([1]; following a single dose, across 3 dose groups, read-out: geometric mean t1/2): 3.01 to 3.53 h | half-life ([1]; following 10 days of twice daily administration, across 3 dose groups, read-out: geometric mean t1/2,ss): 4.71 to 6.32 h | Tmax ([1]; following 10 days of twice daily administration, across 3 dose groups, read-out: median Tmax,ss): 1 to 2 h | Tmax ([1]; following a single dose, across 3 dose groups (200, 400, 600 mg), read-out: median Tmax): 2 to 3 h | QTcF interval ([1]; multiple ascending dose): no prolongation | overall safety and tolerability ([1]; multiple ascending dose, 200-600 mg BID, 10 days): generally safe and well tolerated | accumulation ([1]; multiple twice daily dosing for 10 days): minimal accumulation | fate of unchanged drug ([1]; single and multiple dose): retained in the GI tract and excreted in feces | MIC90 (C. difficile [2]): 1.0 mg/L (≈ 1.95 µM) | MIC90 (C. perfringens): 0.25 mg/L (≈ 0.487 µM) | activity in hamster model of C. difficile infection (C. difficile [3]): active | deaths, SAEs, severe or life-threatening TEAEs ([4]; single dose): no deaths, SAEs, or severe or life-threatening TEAEs | moderate TEAEs ([4]; single dose): 7.4% | overall safety and tolerability ([4]; single dose study): safe and well-tolerated | subjects reporting treatment-emergent adverse events (TEAEs) ([4]; single dose, CRS3123-treated subjects combined): 93.3% | TEAE frequency: abnormal urine analysis [4, 5]: 20.0% | TEAE frequency: decreased hemoglobin [4, 5]: 23.3% | TEAE frequency: headache [4, 5]: 20.0% | TEAE frequency: positive urine leukocyte esterase [4, 5]: 16.7% | treatment-related TEAE: abnormal urine analysis [4, 6]: 16.7% | treatment-related TEAE: decreased blood calcium [4, 6]: 13.3% | treatment-related TEAE: decreased hemoglobin [4, 6]: 16.7% | treatment-related TEAE: headache [4, 6]: 20.0% | dose proportionality of systemic exposure ([4]; single oral dose 100-1200 mg): did not appear to be dose-proportional | fraction absorbed ([4]; single oral dose 100-1200 mg, healthy fasted subjects): low but detectable fraction | metabolism ([4]; single oral dose, mass spectral analysis): metabolized in the body via glucuronidation
